The values below are quoted from earlier work in patent US20040110828A1, “Tetrahydrocannabinol compositions and methods of manufacture and use thereof” (priority 2002, published 2004).

As for `CCCCCc1cc(O)c2c(c1)OC(C)(C)[C@@H]1CCC(C)=C[C@@H]21` [Delta 9-THC, Delta 9-tetrahydrocannabinol], the “half-life of blood level” value (IV administration, slow phase after the initial distribution (first 30 minutes)) was no less than 19 h. Besides, for the setting “one week after an IV injection of a single dose”, the “compound and its metabolites remaining in the body” value was 25-30%.
